This note sets out measurements from PubChem BioAssay (NCI).

Holding throughout (assay): growth of human tumour cells (NCI), 48 h
The test system of test [1] is A549 NSCLC.
Test [2] relates to MOLT-4 leukemia.
Test [3] concerns K-562 leukemia.
The subject of test [4] is OVCAR-8 ovarian.
Test [5] relates to CCRF-CEM leukemia.
In test [6] the test system is HL-60(TB) leukemia.
Test [7] relates to SK-MEL-5 melanoma.
Test [8] deals with NCI-H460 lung.
Test [9] concerns 786-0 renal.
Test [10] relates to SR leukemia.
Test [11] relates to T-47D breast.
Test [12] deals with HT29 colon.
Test [13] deals with MDA-MB-231 breast.
Test [14] concerns NCI-H226 lung.
The test system of test [15] is TK-10 renal.
For test [16], the system named is SF-539 CNS.
Test [17] has as its system LOX IMVI melanoma.
The test system of test [18] is HS 578T breast.
The test system of test [19] is DU-145 prostate.
The subject of test [20] is HCC-2998 colon.

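Interpolation was linear, between the two tested concentrations surrounding the appropriate level; five concentrations were tested over 48 hours in 96-well plates. TGI: total growth inhibition.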 A value given as a limit tells only on which side of the number the result lay.

Turning to `C[C@@H]1CCC2[C@@H](C)[C@H](O[C@H]3O[C@@H]4O[C@@]5(C)CCC6[C@H](C)CCC([C@H]3C)[C@]64OO5)O[C@@H]3O[C@@]4(C)CCC1[C@@]23OO4` (stereo not given in full), the TGI is 32.3 µM in test [1]; 15 µM in test [2]; more than 100 µM in test [3]; 16.7 µM in test [4]; 18.3 µM in test [5]; 3.81 µM in test [6]. For the same compound, the TGI in test [7] is 12.8 µM; in test [8] it was 17 µM; in test [9] it was 18 µM; in test [10] it was 1.28 µM; in [11] it was 22.2 µM; in [12], 13.4 µM. The TGI in [13] worked out at 13.1 µM; in test [14], 34.1 µM; in test [15], 17.2 µM; in test [16] it was 21.9 µM; in test [17] it was 1.58 µM; in test [18], 24.2 µM. The TGI came out at 19.5 µM in [19] and 14.5 µM in test [20].

Regarding `Oc1ccc(-c2c3ccccc3c(-c3ccc(OCCBr)cc3)c3ccccc23)cc1`, the TGI in test [1] was 69.1 µM; in [2], more than 100 µM; in test [3], 97.4 µM; in test [4], 64 µM; in test [5] it was more than 100 µM; in test [6], 70.1 µM. The TGI in test [7] was 36.3 µM; in [8], more than 100 µM; in [9], 44.5 µM; in test [10] it was 92.6 µM; in test [11] it was more than 100 µM; in test [12], 43.2 µM. The TGI came out at 44.6 µM in test [13]; 54.5 µM in test [14]; 99.2 µM in [15]; 32.4 µM in [16]; 38.9 µM in test [17]; 82.2 µM in [18]. The TGI in [19] and in [20] was more than 100 µM throughout.

Regarding `Brc1ccccc1/C=C\C1(c2ccccc2)OCCO1`, the TGI in test [1] is 32.8 µM; in [2] it was 9.23 µM; in test [3] it was more than 100 µM; in test [4] it was 24.5 µM; in [5], more than 33.2 µM; in [6] it was more than 52.3 µM. Further, the TGI in test [7] came to 29.1 µM; in test [8], 34.2 µM; in test [9], 24.3 µM; in test [10], 8.33 µM; in [11] it was 31.4 µM; in test [12], 19 µM. Also, the TGI in [13] worked out at 25.4 µM; in test [14] it was 38.2 µM; in test [15], 31.7 µM; in [16] it was 25.7 µM; in test [17], 11.6 µM; in test [18], 17.3 µM. The TGI came to 26.7 µM in [19] and 32.2 µM in [20].

For the compound `C[C@H](CCC(=O)O[C@@H]1CC[C@@]2(C)C(CC[C@H]3[C@@H]4CC[C@H]([C@H](C)CCc5nc6ccccc6[nH]5)[C@@]4(C)CC[C@@H]32)C1)[C@H]1CC[C@H]2[C@@H]3CCC4C[C@H](O)CC[C@]4(C)[C@H]3CC[C@]12C` (stereo not given in full), the TGI in test [1], in [2], in [3], in test [4], in test [5] and in test [6] was more than 100 µM throughout. The TGI in test [7], in test [8], in [9], in test [10], in test [11] and in test [12] was more than 100 µM in each case. Further, the TGI in test [13], in [14], in [15], in [16], in test [17] and in [18] was more than 100 µM throughout. Moreover, the TGI in test [19] and in test [20] was more than 100 µM in each case.

In the case of `COc1c(C(=O)/C(=N/Nc2ccccc2)C(C)=O)c(O)c(OC)c2occc12`, the TGI in [1], in test [2], in [3], in [4], in test [5] and in [6] was more than 100 µM in each case. Further, the TGI in [7] is 31.7 µM; in test [8] it was more than 100 µM; in test [9], more than 100 µM; in test [10], more than 100 µM; in test [11], more than 100 µM; in [12], more than 100 µM. Besides, the TGI in test [13], in test [14], in test [15], in test [16], in test [17] and in [18] was more than 100 µM throughout. Besides, the TGI in test [19] and in [20] was more than 100 µM throughout.

`CN(C)CCSC(=Nc1ccccc1)N1C=COC=C1`: the TGI in test [1] was more than 100 µM; in test [2] it was more than 100 µM; in [3], more than 100 µM; in test [4], more than 63.3 µM; in test [5] it was more than 100 µM; in [6] it was more than 100 µM. Moreover, the TGI in test [7] was 34 µM; in test [8] it was more than 100 µM; in test [9], 38.9 µM; in [10], more than 100 µM; in [11] it was 74.4 µM; in [12], more than 100 µM. In addition, the TGI in [13] was 41.1 µM; in test [14], more than 75.6 µM; in test [15] it was more than 100 µM; in [16] it was more than 89 µM; in test [17], 31.8 µM; in test [18], more than 100 µM. Moreover, the figures for the TGI in [19] and in [20] were more than 100 µM and 50.5 µM, respectively.

Take `CCc1ccc(CCC(=O)O)nc1`: the TGI in [1], in [3], in [4], in [5], in test [6] and in [7] was more than 100 µM in each case. In addition, the TGI in [8], in test [9], in test [10], in [11], in test [12] and in [13] was more than 100 µM in each case. Moreover, the TGI in [14], in test [15], in test [16], in test [17], in test [18] and in test [19] was more than 100 µM throughout. This compound yielded a TGI in test [20] of more than 100 µM.

`CN(C)CCCc1cccnc1`: the TGI in [1], in [3], in [4], in [5], in test [6] and in [7] was more than 100 µM each time. Moreover, the TGI in [8], in test [9], in test [10], in test [11], in [12] and in test [13] was more than 100 µM each time. Moreover, the TGI in test [14], in test [15], in test [17], in test [18], in test [19] and in test [20] was more than 100 µM throughout.

For the compound `O/N=C(\C=N\O)c1ccc2c(c1)Sc1ccccc1O2`, the TGI in test [1] was more than 100 µM; in test [2], 32.7 µM; in test [3], 85.4 µM; in test [4], 74.8 µM; in test [5], 7.43 µM; in test [6] it was 59.8 µM. In addition, the TGI in [8] was determined as 60.5 µM; in test [9], 38.6 µM; in test [10] it was 75.9 µM; in test [11], 74.7 µM; in test [12], 49.7 µM; in test [13], 38.4 µM. Also, the TGI was 69.6 µM in test [14]; 84.1 µM in test [15]; 82.4 µM in test [16]; more than 100 µM in [17]; more than 100 µM in test [18]; more than 100 µM in test [19]. In addition, the TGI in test [20] came out at 41.9 µM.

Take `c1ccc2c(c1)ccc1ncccc12`: the TGI in [1], in test [2], in [3], in test [4], in [6] and in test [7] was more than 100 µM throughout. Besides, the TGI in test [8], in test [9], in [10], in [11], in [12] and in test [13] was more than 100 µM each time. In addition, the TGI in test [14], in [15], in [16], in test [17], in test [18] and in test [19] was more than 100 µM throughout. In test [20], the TGI was more than 100 µM.

As to `CCOC(=O)N1CC2(C(=O)OC)C=CC1C(C(=O)OC)C2` (stereo not given), the TGI in test [1], in [2], in test [3], in test [4], in test [5] and in test [6] was more than 100 µM each time. For the same compound, the TGI in test [7], in [8], in [9], in test [10], in test [11] and in [13] was more than 100 µM throughout. Further, the TGI in [14], in [15], in [16], in [17], in test [18] and in [19] was more than 100 µM in each case. In test [20], the TGI is more than 100 µM.

Take `O=c1[nH]c(=O)n(C2CC(O)C(COP(=O)(O)OC3CC(n4cc(F)c(=O)[nH]c4=O)OC3COP(=O)(O)OC3CC(n4cc(F)c(=O)[nH]c4=O)OC3COP(=O)(O)OC3CC(n4cc(F)c(=O)[nH]c4=O)OC3COP(=O)(O)OC3CC(n4cc(F)c(=O)[nH]c4=O)OC3COP(=O)(O)OC3CC(n4cc(F)c(=O)[nH]c4=O)OC3COP(=O)(O)OC3CC(n4cc(F)c(=O)[nH]c4=O)OC3COP(=O)(O)OC3CC(n4cc(F)c(=O)[nH]c4=O)OC3COP(=O)(O)OC3CC(n4cc(F)c(=O)[nH]c4=O)OC3COP(=O)(O)OC3CC(n4cc(F)c(=O)[nH]c4=O)OC3CO)O2)cc1F` (stereo not given): the TGI in test [1], in test [2], in test [3], in test [4], in test [6] and in [7] was more than 50 µM throughout. In addition, the TGI in [9], in test [10], in [11], in test [12], in [13] and in test [14] was more than 50 µM throughout. Moreover, the TGI is more than 50 µM in test [15]; less than 0.005 µM in [16]; more than 50 µM in test [17]; more than 50 µM in [18]; more than 50 µM in [19]; more than 50 µM in [20].

Turning to `O=C(Cn1c(C(=O)/C=C/c2ccco2)nc2ccccc21)c1ccc(Cl)cc1`, the TGI in test [1] was more than 100 µM; in test [3], 51 µM; in test [5], 27.4 µM; in test [6], 41 µM; in [7], 97.1 µM; in test [8] it was 27.2 µM. The TGI in test [9] is 31.4 µM; in test [10], 16.4 µM; in test [11] it was more than 100 µM; in test [12] it was 92.6 µM; in [13], 59.8 µM; in test [14], more than 100 µM. The TGI in test [15] is 85.8 µM; in test [16], more than 100 µM; in test [17], 26.7 µM; in [18] it was 24.6 µM; in [19], more than 100 µM; in test [20] it was 33.6 µM.
